Source: US11078193B2 (priority 2014, dated 2021)

Assays:
[1] = Cytotoxicity, HepG2 cells, Resazurin assay; format: cell-based; conditions: human
[2] = system: HBV; assay: anti HBV activity, HepG2.117 inducibly HBV producing cell line (Tet-off), intracellular HBV DNA by realtime PCR; format: cell-based; conditions: Hepatitis B virus, 72 h, HepG2.117 cells, 3 days of treatment

Row | SMILES | CC50 at 4 days [1] | EC50 [2]
1 | Cn1cc(S(=O)(=O)N[C@H]2CCOC2)c(Cl)c1C(=O)Nc1ccnc(Cl)c1 [Compound 91, 3-chloro-N-(2-chloro-4-pyridyl)-1-methyl-4-[[(3S)-tetrahydrofuran-3-yl]sulfamoyl]pyrrole-2-carboxamide] | > 25000 nM | 200 nM
2 | Cn1cc(S(=O)(=O)NC2(CO)COC2)c(Cl)c1C(=O)Nc1ccnc(Cl)c1 [Compound 92] | > 25000 nM | 440 nM
3 | Cn1cc(S(=O)(=O)N[C@H]2C[C@@H](O)C2)c(Cl)c1C(=O)Nc1ccnc(Cl)c1 [Compound 93, 3-chloro-N-(2-chloro-4-pyridyl)-4-[(3-hydroxycyclobutyl)sulfamoyl]-1-methyl-pyrrole-2-carboxamide] | > 25000 nM | 330 nM
4 | C[C@@H](NS(=O)(=O)c1cn(C)c(C(=O)Nc2ccnc(Cl)c2)c1Cl)C(C)(F)F [Compound 94, 3-chloro-N-(2-chloro-4-pyridyl)-4-[[(1R)-2,2-difluoro-1-methyl-propyl]sulfamoyl]-1-methyl-pyrrole-2-carboxamide] | > 25000 nM | 30 nM
5 | C[C@@H](NS(=O)(=O)c1cc(C(=O)Nc2ccnc(C#N)c2)n(C)c1)C(C)(F)F [Compound 101, N-(2-cyano-4-pyridyl)-4-[[(1R)-2,2-difluoro-1-methyl-propyl]sulfamoyl]-1-methyl-pyrrole-2-carboxamide] | > 25000 nM | 430 nM
6 | C[C@@H](NS(=O)(=O)c1cc(C(=O)Nc2ccnc(F)c2)n(C)c1)C(C)(F)F [Compound 102, 4-[[(1R)-2,2-difluoro-1-methyl-propyl]sulfamoyl]-N-(2-fluoro-4-pyridyl)-1-methyl-pyrrole-2-carboxamide] | > 25000 nM | 180 nM
7 | C[C@@H](NS(=O)(=O)c1cc(C(=O)Nc2ccnc(Cl)c2)n(C)c1)C(C)(F)F [Compound 103, N-(2-chloro-4-pyridyl)-4-[[(1R)-2,2-difluoro-1-methyl-propyl]sulfamoyl]-1-methyl-pyrrole-2-carboxamide] | > 25000 nM | 140 nM
8 | C[C@@H](NS(=O)(=O)c1cn(C)c(C(=O)Nc2ccnc(Cl)c2F)c1Cl)C(C)(F)F [Compound 107, 3-chloro-N-(2-chloro-3-fluoro-4-pyridyl)-4-[[(1R)-2,2-difluoro-1-methyl-propyl]sulfamoyl]-1-methyl-pyrrole-2-carboxamide] | > 25000 nM | 20 nM
9 | Cn1cc(S(=O)(=O)NC2(C(F)(F)F)CCC2)c(Cl)c1C(=O)Nc1cc(F)nc(F)c1 [Compound 109, 3-chloro-N-(2,6-difluoro-4-pyridyl)-1-methyl-4-[[1-(trifluoromethyl)cyclobutyl]sulfamoyl]pyrrole-2-carboxamide] | > 25000 nM | 10 nM
10 | Cn1cc(S(=O)(=O)NC2(C(F)(F)F)CCC2)c(Cl)c1C(=O)Nc1ccnc(Br)c1 [Compound 110, N-(2-bromo-4-pyridyl)-3-chloro-1-methyl-4-[[1-(trifluoromethyl)cyclobutyl]sulfamoyl]pyrrole-2-carboxamide] | > 25000 nM | 20 nM
11 | Cn1cc(S(=O)(=O)NC2(C(F)(F)F)CCC2)c(Cl)c1C(=O)Nc1ccnc(F)c1 [Compound 111, 3-chloro-N-(2-fluoro-4-pyridyl)-1-methyl-4-[[1-(trifluoromethyl)cyclobutyl]sulfamoyl]pyrrole-2-carboxamide] | > 25000 nM | 30 nM
12 | CC[C@@H](NS(=O)(=O)c1cn(C)c(C(=O)Nc2ccnc(Cl)c2F)c1Cl)C(F)(F)F [Compound 112, 3-chloro-N-(2-chloro-3-fluoro-4-pyridyl)-1-methyl-[[(1R)-1-(trifluoromethyl)propyl]sulfamoyl]pyrrole-2-carboxamide] | > 25000 nM | 20 nM
13 | Cn1cc(S(=O)(=O)NC2(C)CC(F)(F)C2)c(Cl)c1C(=O)Nc1ccnc(Cl)c1F [Compound 114, 3-chloro-N-(2-chloro-3-fluoro-4-pyridyl)-4-[(3,3-difluoro-1-methyl-cyclobutyl)sulfamoyl]-1-methyl-pyrrole-2-carboxamide] | > 25000 nM | 10 nM
14 | Cn1cc(S(=O)(=O)NC2(C)CC(F)(F)C2)c(F)c1C(=O)Nc1ccnc(Br)c1 [Compound 117, N-(2-bromo-4-pyridyl)-4-[(3,3-difluoro-1-methyl-cyclobutyl)sulfamoyl]-3-fluoro-1-methyl-pyrrole-2-carboxamide] | > 25000 nM | 10 nM
15 | Cn1cc(S(=O)(=O)NC2(C(F)(F)F)CCC2)c(F)c1C(=O)Nc1ccnc(C(F)F)c1 [Compound 119, N-[2-(difluoromethyl)-4-pyridyl]-3-fluoro-1-methyl-4-[[1-(trifluoromethyl)cyclobutyl]sulfamoyl]pyrrole-2-carboxamide] | > 25000 nM | 5 nM
16 | Cn1cc(S(=O)(=O)NC2(C(F)(F)F)CCC2)c(F)c1C(=O)Nc1ccnc(Cl)c1F [Compound 120, N-(2-chloro-3-fluoro-4-pyridyl)-3-fluoro-1-methyl-4-[[1-(trifluoromethyl)cyclobutyl]sulfamoyl]pyrrole-2-carboxamide] | > 25000 nM | 5 nM

Row | SMILES | CC50 at 4 days [1] | EC50 [2]
17 | Cn1cc(S(=O)(=O)NC2(C(F)(F)F)CCC2)c(F)c1C(=O)Nc1cc(Cl)nc(C#N)c1 [Compound 121, N-(2-chloro-6-cyano-4-pyridyl)-3-fluoro-1-methyl-4-[[1-(trifluoromethyl)cyclobutyl]sulfamoyl]pyrrole-2-carboxamide] | > 25000 nM | 40 nM
18 | Cn1cc(S(=O)(=O)NC2(C(F)(F)F)CCC2)c(F)c1C(=O)Nc1ccnc(Cl)c1 [Compound 122, N-(2-chloro-4-pyridyl)-3-fluoro-1-methyl-4-[[1-(trifluoromethyl)cyclobutyl]sulfamoyl]pyrrole-2-carboxamide] | > 25000 nM | 10 nM
19 | Cn1cc(S(=O)(=O)NC2(C(F)(F)F)CCC2)c(F)c1C(=O)Nc1ccnc(C#N)c1 [Compound 123, N-(2-cyano-4-pyridyl)-3-fluoro-1-methyl-4-[[1-(trifluoromethyl)cyclobutyl]sulfamoyl]pyrrole-2-carboxamide] | > 25000 nM | 10 nM
20 | Cn1cc(S(=O)(=O)NC2CCC2(F)F)c(F)c1C(=O)Nc1ccnc(C(F)F)c1 (centres unmarked) [Compound 127, 4-[(2,2-difluorocyclobutyl)sulfamoyl]-N-[2-(difluoromethyl)-4-pyridyl]-3-fluoro-1-methyl-pyrrole-2-carboxamide] | > 25000 nM | 50 nM
21 | Cn1cc(S(=O)(=O)NC2(CF)CCC2)c(F)c1C(=O)Nc1ccnc(C(F)F)c1 [Compound 128, N-[2-(difluoromethyl)-4-pyridyl]-3-fluoro-4-[[1-(fluoromethyl)cyclobutyl]sulfamoyl]-1-methyl-pyrrole-2-carboxamide] | > 25000 nM | 40 nM
22 | Cc1cc(NC(=O)c2c(F)c(S(=O)(=O)NC3(C)CC(F)(F)C3)cn2C)cc(Cl)n1 [Compound 130, N-(2-chloro-6-methyl-4-pyridyl)-4-[(3,3-difluoro-1-methyl-cyclobutyl)sulfamoyl]-3-fluoro-1-methyl-pyrrole-2-carboxamide] | > 25000 nM | 60 nM
23 | Cn1cc(S(=O)(=O)NC2(C)CC(F)(F)C2)c(F)c1C(=O)Nc1ccnc(Br)c1F [Compound 131, N-(2-bromo-3-fluoro-4-pyridyl)-4-[(3,3-difluoro-1-methyl-cyclobutyl)sulfamoyl]-3-fluoro-1-methyl-pyrrole-2-carboxamide] | > 25000 nM | 20 nM
24 | Cn1cc(S(=O)(=O)NC2(C)CC(F)(F)C2)c(F)c1C(=O)Nc1ccnc(F)c1 [Compound 133, 4-[(3,3-difluoro-1-methyl-cyclobutyl)sulfamoyl]-3-fluoro-N-(2-fluoro-4-pyridyl)-1-methyl-pyrrole-2-carboxamide] | > 25000 nM | 50 nM
25 | Cn1cc(S(=O)(=O)NC2(C)CC(F)(F)C2)c(F)c1C(=O)Nc1cc(Br)nc(Br)c1 [Compound 135, N-(2,6-dibromo-4-pyridyl)-4-[(3,3-difluoro-1-methyl-cyclobutyl)sulfamoyl]-3-fluoro-1-methyl-pyrrole-2-carboxamide] | 13000 nM | 180 nM
26 | C[C@@H](NS(=O)(=O)c1cn(C)c(C(=O)Nc2ccnc(F)c2F)c1Cl)C(F)(F)F [Compound 138, 3-chloro-N-(2,3-difluoro-4-pyridyl)-1-methyl-4-[[(1R)-2,2,2-trifluoro-1-methyl-ethyl]sulfamoyl]pyrrole-2-carboxamide] | > 25000 nM | 90 nM
27 | C[C@@H](NS(=O)(=O)c1cn(C)c(C(=O)Nc2cc(F)ncc2F)c1Cl)C(F)(F)F [Compound 140, 3-chloro-N-(2,5-difluoro-4-pyridyl)-1-methyl-4-[[(1R)-2,2,2-trifluoro-1-methyl-ethyl]sulfamoyl]pyrrole-2-carboxamide] | > 25000 nM | 200 nM
28 | Cc1cc(NC(=O)c2c(Cl)c(S(=O)(=O)N[C@H](C)C(F)(F)F)cn2C)cc(Cl)n1 [Compound 141, 3-chloro-N-(2-chloro-6-methyl-4-pyridyl)-1-methyl-4-[[(1R)-2,2,2-trifluoro-1-methyl-ethyl]sulfamoyl]pyrrole-2-carboxamide] | > 25000 nM | 40 nM
29 | C[C@@H](NS(=O)(=O)c1cn(C)c(C(=O)Nc2ccnc(C(F)F)c2F)c1Cl)C(F)(F)F [Compound 142, 3-chloro-N-[2-(difluoromethyl)-3-fluoro-4-pyridyl]-1-methyl-4-[[(1R)-2,2,2-trifluoro-1-methyl-ethyl]sulfamoyl]pyrrole-2-carboxamide] | > 25000 nM | 20 nM
30 | Cc1cc(NC(=O)c2c(Cl)c(S(=O)(=O)N[C@H](C)C(F)(F)F)cn2C)cc(C)n1 [Compound 144, 3-chloro-N-(2,6-dimethyl-4-pyridyl)-1-methyl-4-[[(1R)-2,2,2-trifluoro-1-methyl-ethyl]sulfamoyl]pyrrole-2-carboxamide] | > 25000 nM | 300 nM
31 | C[C@@H](NS(=O)(=O)c1cn(C)c(C(=O)Nc2ccnc(C(F)F)c2F)c1Cl)C(C)(F)F [Compound 147, 3-chloro-N-[2-(difluoromethyl)-3-fluoro-4-pyridyl]-4-[[(1R)-2,2-difluoro-1-methyl-propyl]sulfamoyl]-1-methyl-pyrrole-2-carboxamide] | > 25000 nM | 20 nM
